Reference: US20130064812A1, “COMBINATION THERAPIES FOR HEMATOLOGIC MALIGNANCIES” (Gilead Calistoga LLC, priority 2011, published 2013)
Values joined by “and” are separate entries in the source; they are usually repeats but may differ in a detail not shown here. Identical values can stand only once. “Also recorded” adds a separate entry of the source.

What was measured:
PIP5Kβ = PIP5Kβ (Homo sapiens, UniProt O14986); test: InvitroGen Adapta kinase assay, PIP5Kβ; assay type: biochemical; conditions: Other Phosphoinositide kinases; head prints no unit
Chain of PIP5Kβ (O14986 whole entry): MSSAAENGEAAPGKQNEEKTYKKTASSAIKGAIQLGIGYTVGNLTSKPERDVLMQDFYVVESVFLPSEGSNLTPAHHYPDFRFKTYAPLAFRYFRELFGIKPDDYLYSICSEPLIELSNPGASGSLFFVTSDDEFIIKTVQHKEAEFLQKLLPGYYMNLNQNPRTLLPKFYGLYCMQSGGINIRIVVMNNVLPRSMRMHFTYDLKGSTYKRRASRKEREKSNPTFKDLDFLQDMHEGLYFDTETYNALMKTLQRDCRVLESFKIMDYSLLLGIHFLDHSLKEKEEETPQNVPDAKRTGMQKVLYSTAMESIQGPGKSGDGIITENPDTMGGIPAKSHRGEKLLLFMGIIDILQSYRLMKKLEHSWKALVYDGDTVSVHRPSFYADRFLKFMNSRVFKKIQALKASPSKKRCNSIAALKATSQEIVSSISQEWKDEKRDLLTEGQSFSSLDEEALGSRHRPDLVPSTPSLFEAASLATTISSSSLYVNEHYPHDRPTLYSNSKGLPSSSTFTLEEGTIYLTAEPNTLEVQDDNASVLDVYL

[1] = test system: IGROV-1 and OVCAR-3 cell lines; test: Proliferation of ovarian cancer cell lines (AlamarBlue); assay type: cell-based; conditions: IGROV-1, OVCAR-3, 48 hrs and 72 hrs
Protocol: IGROV-1 and OVCAR-3 cell lines were grown in the presence of serum plus the indicated concentrations of the compound of formula I. Proliferation was measured in triplicate wells by AlamarBlue assay (Invitrogen) 96-well plates.

phospho-Akt(Ser473) = test: Constitutive Akt phosphorylation in leukemia and lymphoma cell lines (immunoblot); assay type: cell-based
Protocol: A large panel of leukemia and lymphoma cell lines was assessed for constitutive Akt phosphorylation. These cell lines represent B-lymphoma, T-lymphoma, ALL, Malignant histiocytosis, DLBCL and AML. […] Thereafter, cell were lysed, size-fractioned and immunoblotted with antibodies directed against phospho-Akt(Ser473).
The PI3K pathway is frequently deregulated in leukemia and lymphoma cell lines. […] In addition, PI3K pathway activation is dependent on p110δ.

[2] = human, in vivo
Protocol: This example provides data relating to the concentration of the compound of formula I in the blood of a healthy human subject on day 7. The concentration was monitored over a period of 12 hours, after oral administration of 50, 100, or 200 mg BID of the compound of formula I on day 7 of the study. FIG. 11 follows the plasma concentration of the drug over a period of 12 hours from administration.
In addition, single dose studies wherein 17-400 mg of the compound of formula I was administered in healthy volunteers was carried out.
Table 1, below, provides an overview of the subjects in the study, wherein either a singe dose (SD) or multiple dose (MD) of the compound of formula I is administered to a subject at varying amounts. The “n” values refer to the number of subjects in each group.

caspase 3 and PARP = test: Cleavage of caspase 3 and PARP (immunoblot, Meso Scale plates); assay type: cell-based; conditions: 5 or 10 μM, 24 hrs
Protocol: FIGS. […]
Thereafter, cells were lysed and sized-fractionated and immunoblotted with antibody directed against FLIP, FIG. 29. Additionally, whole cell lysates were added to MDS (Meso Scale Diagnostics) multi-spot 96-well 4 spot plates coated with Total caspase-3, cleaved caspase-3, cleaved PARP, and BSA. Proteins were detected with antibodies labeled with SULFO-TAG reagent and quantified.

CLL = test: Previous single-agent study in patients with CLL; assay type: in vivo, human; conditions: single-agent therapy
CLL cells = assay type: cell-based, human
Protocol: (§1) This pro-survival effect was abrogated by the compound of formula I, which reduced CLL cell viability to 85±3% of controls at 48 hours (mean±SEM, n=15, *P<0.05). […] BCR cross-linking induces secretion of the chemokines CCL3 and CCL4 by CLL cells, which was quantified in CLL supernatants by ELISA.
(§2) The CCL3 concentrations were reduced by the compound of formula I from 943±535 pg/mL to 156±8 pg/mL, and the CCL4 concentrations from 7433±4463 pg/mL to 316±53 pg/mL (mean±SEM, n=5, *P<0.05).

CLL-NLC co-cultures = assay type: cell-based, human
Protocol: as §1, §2

PI3K-δ = test: PI3K ELISA assay on CLL cell lysates with lenalidomide; assay type: cell-based, human; conditions: 0.5 μM lenalidomide; 1 or 10 μM compound added to lysate; N=9
Protocol: PI3K assay was preformed on whole cell lysates from CLL cells. The ELISA assay was performed according to the manufacture's instructions (Echelon Biosciences, Salt Lake City, Utah).
To first confirm the specificity of PI3-kinase activation, the direct increase in the enzymatic activity of PI3K following treatment with lenalidomide was determined. […] Results were calculated relative to μg of protein. Signaling with lenalidomide through the PI3K pathway can occur through four catalytic isoforms: p110α, p110β, p110γ, and p110δ.

[3] = test system: CD19+ cells from CLL patients; test: mRNA expression in CD19+ CLL cells (RT-PCR); assay type: cell-based, human; conditions: 0.5 μM lenalidomide and/or 10 μM compound, 48 hours
Protocol: RNA was extracted using TRIzol reagent (Invitrogen) and cDNA was prepared using a SuperScript First-Strand Synthesis System (Invitrogen). Real-Time PCR was performed using pre-designed TaqMan® Gene Expression Assays and ABI Prism 7700 sequence detection system (Applied Biosystems, Foster City, Calif.).
RNA was extracted and converted to cDNA and RT-PCR analysis was done to determine quantities of CD40, CD86 and CD154 mRNA.
Lastly, lenalidomide treatment of CLL cells in culture was tested to determine whether it could promote tumor cell production of vascular endothelial growth factor (VEGF) and basic fibroblast growth factor (b-FGF). […] RNA was extracted and converted to cDNA and RT-PCR analysis was done to determine quantities of bFGF.
RNA was extracted and converted to cDNA and RT-PCR analysis was done to determine quantities of VEGF

[4] = test system: CLL cells on stromaNKTert; test: Calcein-based adhesion assay of CLL cells on stroma; assay type: cell-based, human
Protocol: a confluent monolayer of CD154+L or StromaNKTert cells was generated by plating 1×10^4 cells/well in 96-well plates for 24 hours. Single cell suspensions of CLL cells at 0.5×10^6 cells/ml were then labeled with 1 μg/mL Calcein-AM (Invitrogen) for 1 hour. Cells were then spun down and treated with compound or vehicle for 1 to 24 hours. Non-adherent cells were washed off by aspiration. CLL cell adhesion was quantified by fluorimetry (Ex/Em=485/520 nm), and visualized directly using the Nikon TE2000 inverted live-cell imaging system.

[5] = test system: AKT (ser473), GSK3β (ser9); test: AKT and GSK3β phosphorylation in CD19+ CLL cells with lenalidomide (immunoblot); conditions: 0.5 μM lenalidomide and/or 1 or 10 μM compound, 48 hours
Protocol: Immunoblots were performed.
AKT phosphorylation at ser473 was assessed by immunoblot.
GSK3β phosphorylation at ser9 was assessed by immunoblot. Results are shown from one of four experiments.
CD19+ cells from CLL patients (N=3) were transfected with siRNA targeted to PI3K-δ, PI3K-γ or a nonsense and then incubated with or without 0.5 μM lenalidomide for 48 hours. AKT phosphorylation at ser473 was assessed by immunoblot. Results are shown from one of three experiments.

Protocol for patient MM cells: All MM cell lines were cultured in RPMI1640 medium. Bone marrow stromal cells (BMSCs) were cultured in Dulbecco's modification of Eagle's medium (DMEM) (Sigma) containing 15% fetal bovine serum, 2 mM L-glutamine (Life Technologies), 100 U/mL penicillin, and 100 μg/mL streptomycin (Life Technologies). […] Patient MM and BM cells were obtained from BM samples after informed consent was obtained per the Declaration of Helsinki and approval by the Institutional Review Board of the Dana-Farber Cancer Institute (Boston, Mass.). BM mononuclear cells were separated using Ficoll-Paque™ density sedimentation, and plasma cells were purified (>95% CD138+) by positive selection with anti-CD138 magnetic activated cell separation micro beads (Miltenyi Biotec, Auburn, Calif.). Tumor cells were also purified from the BM of MM patients using the RosetteSep negative selection system (StemCell Technologies, Vancouver, BC, Canada).
Data represent mean±SD viability, assessed by MTT assay of triplicate cultures, expressed as percentage of untreated controls.

## CC[C@H](Nc1ncnc2[nH]cnc12)c1nc2cccc(F)c2c(=O)n1-c1ccccc1 [Compound I, 5-fluoro-3-phenyl-2-[1-(9H-purin-6-ylamino)-propyl]-3H-quinazolin-4-one]
PIP5Kβ
  IC50: > 1000 nM
[1]
  proliferation of ovarian cancer cell lines: cytotoxic to two ovarian cancer cell lines
[1]; listed as compound of formula I
  proliferation of ovarian cancer cell lines: inhibits proliferation of ovarian cancer cell lines
phospho-Akt(Ser473); 10 μM, 2 hrs, B-cell and T-cell lymphomas included
  cell lines in which constitutive AKT phosphorylation was inhibited: 11 out of 11
phospho-Akt(Ser473); 2 hours treatment
  constitutive Akt(Ser473) phosphorylation: inhibits Akt phosphorylation; also recorded: Reduction in Akt(Ser473) was achieved for all cell lines
phospho-Akt(Ser473); cell lines with constitutive p-AKT
  cell lines in which constitutive AKT phosphorylation was inhibited: 13 of 13 and 13 out of 13
[2]
  concentration level versus PI3Kδ EC50 in basophil: exceeds the PI3Kδ EC50 concentration in basophil for at least 12 hours
  tolerability in normal healthy volunteers: well tolerated at doses above commonly used therapeutic doses
Caspase 3 and PARP
  cleavage of caspase 3 and PARP: dose dependent response in the cleavage of caspase 3 and PARP
CLL
  fraction of patients with CLL with lymphocytosis: ⅔
  lymphocyte redistribution: transient lymphocytosis in patients with CLL
CLL cells; BCR cross-linking, from 4060±1392 pg/mL, mean±SEM, n=6
  supernatant CCL3 concentration: 2901 ± 1220 pg/mL
CLL cells; BCR cross-linking, from 5721±1789 pg/mL, mean±SEM, n=6
  supernatant CCL4 level: 3223 ± 1311 pg/mL
CLL cells; human, 48 h
  CLL cell viability, % of controls: 85±3%
CLL-NLC co-cultures; CLL-NLC co-cultures, from 151±35, n=4
  CXCL13 level: 70 ± 27 pg/mL
CLL-NLC co-cultures; CLL-NLC co-cultures, from 943±535 pg/mL, n=5
  CCL3 concentration: 156 ± 8 pg/mL
CLL-NLC co-cultures; CLL-NLC co-cultures, from 7433±4463 pg/mL, n=5
  CCL4 concentration: 316 ± 53 pg/mL
CLL-NLC co-cultures; human, 48 h
  CLL cell viability, % of untreated controls: 64±6%
PI3K-δ
  PI3K enzymatic activity after lenalidomide: prevent the increase in PI3K enzymatic activity
[3]; N=13
  VEGF transcription: reversible by treatment with the compound of formula I
[3]; N=15
  b-FGF transcription: prevented this up-regulation
[3]; N=15, p<0.009
  mRNA of CD40, CD86, CD154 and CD80: prevent the increase in mRNA of CD40, CD86, CD154 and CD80 promoted by lenalidomide
[4]
  CLL cell adherence to stroma at one hour: reduced adherence of CLL cells was detectable
[4]; 10 μM
  CLL cell adherence to stroma at 24 hours: exhibited less adherent at 24 hours
Patient MM cells
  cytotoxicity against patient MM cells: induced cytotoxicity against patient MM cells
[5]
  AKT activation / phosphorylation (ser473) with lenalidomide: resulted in prevention of PI3K activity
[5]; N=4
  GSK3β phosphorylation (ser9): preventable by co-treatment with the compound of formula I
